The results in this text go back to patent publication US10800741B2 (ANCUREALL PHARMACEUTICAL (SHANGHAI) CO., LTD., priority 2017, dated 2020).

In one test the test system is Huh-7. The test can be described thus: In vitro growth inhibition of Huh-7 cells. In kind it is cell-based. Particulars: Homo sapiens, FGFR3+++, FGFR4 +++. On the procedure: (§1) Adherent cells were digested with 0.25% trypsin-EDTA (Gibco). Suspension culture cells were collected by centrifugation (1700 rpm, 3 minutes). The supernatant was discarded and the cells were counted. According to each cell growth cycle, different concentrations of cells were prepared (5˜10×10^4 cells per ml), and inoculated to 96-well plates (Corning), with 100 μl per well, and incubated overnight at 37° C., 5% CO2. The next day, the test compound was added to the cultured cells (2 wells in parallel). The final concentration of the solvent was less than 1/1,000. The cells were further cultured for 3 to 5 days and assayed by MTT.
(§2) The MTT test reagent was a Dojindo CCK8 kit and the Microplate Reader was a THERMO […] FC instrument.
(§3) The adherent cells were taken out from the cell culture medium, and immediately added to a freshly prepared complete medium containing 10% CCK8 (5% FBS), 100 ul per hole. The suspended cells were directly added to a CCK8 reagent until reaching a final concentration of 10% and cultured for 1 to 4 hours. When a dark yellow color could be observed in the solvent control wells, the absorbance value at OD450 nm was measured and the cell growth rate was calculated according to the following formula: Cell Growth Rate (%)=100×(T−T0)/(C−T0)
(§4) T=optical density of drug-treated cell wells−optical density of blank control wells; T0=optical density of cell wells before drug treatment−optical density of blank control wells; C=optical density of solvent control wells−optical density of blank control wells. […] The experiments were repeated 1 to 3 times and a statistical analysis of data was conducted.
(§5) Mutations in the FGFR1-4 gene often occur in different types of cancer patients. In order to test the growth inhibition activity of the present compound against tumor cells expressing different FGFR variants, tumor cell lines expressing representative FGFR1-4 were selected for further determining the activity of compounds 25, 66, 38 and 95 of the present invention. BGJ398, a selective inhibitor of FGFR1-4, was used as the control compound. The specific test method is the same as test example 1.

A further test has as its system SK-OV-3. As to the kind of experiment: In vitro growth inhibition of PI3KCA amplified/mutant tumor cells SK-OV-3. Particulars: Homo sapiens; SK-OV-3; PI3KCA H1047R; HER2 amp; read-out: IC50 growth inhibition. It counts as cell-based. On the procedure: (§6) Suspension culture cells were collected by centrifugation (1700 rpm, 3 minutes). The supernatant was discarded and the cells were counted. According to each cell growth cycle, different concentrations of cells were prepared (5˜10×10^4 cells per ml), and inoculated to 96-well plates (Corning), with 100 μl per well, and incubated overnight at 37° C., 5% CO2. The next day, the test compound was added to the cultured cells (2 wells in parallel). The final concentration of the solvent was less than 1/1,000. The cells were further cultured for 3 to 5 days and assayed by MTT.
(§7) The adherent cells were taken out from the cell culture medium, and immediately added to a freshly prepared complete medium containing 10% CCK8 (5% FBS), 100 ul per hole. The suspended cells were directly added to a CCK8 reagent until reaching a final concentration of 10% and cultured for 1 to 4 hours.
as §4

Another test has as its system Karpas 299 (NPM-ALK). As to the kind of experiment: In vitro growth inhibition of Karpas 299 tumor cells (MTT/CCK8). To be noted: Homo sapiens, KARPAS-299; in vitro growth inhibition (or induction of apoptosis), cells cultured 3 to 5 days, MTT (CCK8); read-out: IC50 Karpas 299 (NPM-ALK). In kind it is cell-based, Human.
In another test the test system is Kasumi-1 (KIT N822K). The test can be described thus: In vitro growth inhibition of Kasumi-1 tumor cells (MTT/CCK8). In kind it is cell-based, Human. To be noted: Homo sapiens, Kasumi 1; in vitro growth inhibition (or induction of apoptosis), cells cultured 3 to 5 days, MTT (CCK8); read-out: IC50 Kasumi-1 (KIT N822K).
A further test deals with AGS. As to the kind of experiment: In vitro growth inhibition of PI3KCA amplified/mutant tumor cells AGS. It counts as cell-based. Particulars: Homo sapiens, PI3KCA E453K/E545A, KRAS G12D, read-out: IC50 growth inhibition. The procedure:
as §6, §7, §4

For a further test, the system named is Hep3B2 (FGFR3/4+++). As to the kind of experiment: In vitro growth inhibition of Hep3B2 tumor cells (MTT/CCK8). Particulars: Homo sapiens, Hep3B; in vitro growth inhibition (or induction of apoptosis), cells cultured 3 to 5 days, MTT (CCK8); read-out: IC50 Hep3B2 (FGFR3/4+++). It counts as cell-based, Human.
For another test, the system named is RT112/84. As to the kind of experiment: In vitro growth inhibition of RT112/84 cells. In kind it is cell-based. To be noted: Homo sapiens, FGFR3-TACC3. On the procedure: as §1, §2, §3, §4, §5
In another test the test system is SW48. As to the kind of experiment: In vitro growth inhibition of PI3KCA amplified/mutant tumor cells SW48. It counts as cell-based. Particulars: Homo sapiens; SW48; PI3KCA G914R; EGFR G719S; read-out: IC50 growth inhibition. On the procedure: as §6, §7, §4
In another test the test system is MDA-MB-453. As to the kind of experiment: In vitro growth inhibition of MDA-MB-453 cells. It counts as cell-based. Particulars: Homo sapiens, PI3KCA H1047R, FGFR4+++/Y367C. On the procedure: as §1, §2, §3, §4, §5
Another test deals with Hep G2. As to the kind of experiment: In vitro growth inhibition of Hep G2 cells. It counts as cell-based. Particulars: Homo sapiens, HepG2, FGFR3+++, FGFR4 +++. The procedure: as §1, §2, §3, §4, §5
In a further test the test system is A2780. As to the kind of experiment: In vitro growth inhibition of PI3KCA amplified/mutant tumor cells A2780. To be noted: Homo sapiens; A2780; PIK3CA E365K; read-out: IC50 growth inhibition. It counts as cell-based. The procedure: as §6, §7, §4
The next test concerns JIMT-1. The test can be described thus: In vitro growth inhibition of JIMT-1 cells. In kind it is cell-based. To be noted: Homo sapiens, FGFR1 amp, HER2 amp, PI3KCA C420R. On the procedure:
as §1, §2, §3, §4, §5

The test system of another test is HCC1954. As to the kind of experiment: In vitro growth inhibition of PI3KCA amplified/mutant tumor cells HCC1954. It counts as cell-based. To be noted: Homo sapiens; HCC1954; PI3KCA H1047R; HER2 amp; read-out: IC50 growth inhibition. The procedure:
as §6, §7, §4

pIC50: −log10 of the molar value.

Consider `COc1cc2nccc(Oc3ccc(NC(=O)Nc4cc(C(C)(C)C)nn4C)c(Cl)c3Cl)c2cc1C(N)=O` [Compound 38, 4-{4-[3-(5-tert-butyl-2-methyl-2H-pyrazol-3-yl)-ureido]-2,3-dichloro-phenoxy}-7-methoxyquinolin-6-carboxamide], for which the pIC50 in the test with Huh-7 was 8.40; in the test with SK-OV-3, 7.49; in the test on Karpas 299 (NPM-ALK) it was 7.93; in the test on Kasumi-1 (KIT N822K), 8.88; in the test with AGS, 7.39; in the test on Hep3B2 (FGFR3/4+++), 8.37. In addition, the pIC50 in the test on RT112/84 is 8.00; in the test with SW48 it was 7.87; in the test on MDA-MB-453 it was 7.70; in the test with Hep G2, 6.92; in the test on A2780 it was 8.04; in the test with JIMT-1, 7.72. Besides, in the test on HCC1954, the pIC50 was 7.93.
For `COCCOc1cc2nccc(Oc3ccc(NC(=O)Nc4cc(C(C)(C)C)n[nH]4)c(Cl)c3)c2cc1NC(C)=O` [Compound 66, N-[4-{4-[3-(5-tert-butyl-2H-pyrazol-3-yl)-ureido]-3-chloro-phenoxy}-7-(2-methoxy-ethoxy)-quinolin-6-yl]-acetamide], the pIC50 in the test on Huh-7 was 8.70; in the test with SK-OV-3 it was 7.37; with Karpas 299 (NPM-ALK) it was 7.36; with Kasumi-1 (KIT N822K) it was 8.95; with AGS, 7.36; in the test with Hep3B2 (FGFR3/4+++), 8.22. Moreover, the pIC50 is 7.59 in the test on RT112/84; 7.55 with SW48; 7.71 in the test on MDA-MB-453; 7.10 in the test on Hep G2; 8.11 in the test on A2780; 7.71 in the test on JIMT-1. For the same compound, in the test on HCC1954, the pIC50 was 7.43.
On to `CN1CCN(CCCOc2cc3nccc(Oc4ccc(NC(=O)Nc5cc(C(C)(C)C)n[nH]5)c(Cl)c4Cl)c3cc2C(N)=O)CC1` [Compound 95], for which the pIC50 was 8.10 in the test with Huh-7; 7.58 in the test with SK-OV-3; 8.12 in the test on Karpas 299 (NPM-ALK); 8.87 in the test on Kasumi-1 (KIT N822K); 7.40 in the test on AGS; 8.07 with Hep3B2 (FGFR3/4+++). The pIC50 in the test on RT112/84 is 8.01; with SW48, 7.38; in the test on MDA-MB-453, 7.31; with Hep G2, 6.89; in the test on A2780 it was 8.04; with JIMT-1 it was 7.69. The pIC50 in the test with HCC1954 is 8.00.
